For one compound, binding results are on record in publication PMC6115404 (2018).

The structures appear in SMILES notation.

This assay has as its system bcl2Mid (DNA, G4) GGGCGCGGGAGGAATTGGGCGGG
Kind of assay: native PAGE. The note with it: K+ (25 mM K-phosphate, 70 mM KCl); samples pH 7.0; gel in TBE pH 8.0; higher-order assemblies at all equivalents.

In the case of `NCCNCCN.NCCNCCN.NCCNCCN.[Pt+2].[Pt+2].[Pt+2].c1cc(-c2ccc(N(c3ccc(-c4ccncc4)cc3)c3ccc(-c4ccncc4)cc3)cc2)ccn1`, the binding result was “yes”.
